For one data set, the system named is SK-MEL-28 melanoma cells. Description: HPLC/MS analyses of MTX, TMECG-QM and DHF in whole cell extracts. The format is cell-based, human. The settings on record: SK-MEL-28 whole cell extracts, 24 h, MTX 1 μM and/or TMECG 10 μM. On the procedure: By way of example, the present inventors have shown that an active agent, such as MTX, may be used to increase TYR expression, thereby increasing the conversion of a catechin to its quinone methide form. The inventors have undertaken HPLC analyses of MTX, TMECG-QM, and DHF in whole cell extracts of SK-MEL-28 melanoma cells that were subjected to MTX (1 μM) and TMECG (10 μM) individual and combined treatments (see Table 1).

The test system of another data set is MITF. Description: MITF mRNA and protein expression (RT-PCR, western blot, immunofluorescence) in melanoma cell lines. Type of data set: cell-based. The settings on record: MTX 1 μM; mouse (B16/F10) and human (SK-MEL-28, G361, A375) cell lines.
Another data set relates to TYR. Description: TYR mRNA and protein expression in melanoma cell lines. Type of data set: cell-based, human. The settings on record: MTX 1 μM; SK-MEL-28 and multiple melanoma cell lines.
The subject of the next data set is SK-MEL-28 cells. Description: Matrigel Boyden chamber invasion assay, SK-MEL-28. The format is cell-based, human. The settings on record: SK-MEL-28, MTX 48 h, 1 μM. As to the method:
FIGS. 1A-J. Methotrexate up-regulates the expression of MITF. A, The MITF rheostat, and the two-step strategy for melanoma therapy: Drug A induces MITF, driving cells to be sensitive to Drug B. B, MTX (1 μM) increases MITF mRNA determined using quantitative and conventional RT-PCR from indicated cell lines. […] C, MTX (1 μM) induces MITF protein assayed by western blotting (WB) (*P<0.05). D, Immunofluorescence of control or MTX-treated (3 h) 501 MEL cells using anti-MITF and DAPI. E, Matrigel assay of control and MTX-treated SKMEL-28 cells (48 h, 1 μM) and IGR39 (72 h, 1 μM) cells. […] Scale bar refers to all panels. F, Chromatin immunoprecipitation on TYR and Pmel17 genes of control and MTX-treated (4 h, 1 μM) SK-MEL-28 cells with qRT-PCR after immunoprecipitation with IgG, or MITF and HDAC3 antibodies. Error bars indicate standard deviations of triplicates; experiment reproduced four times with similar results. G, Scanning electron micrographs of control and MTX-treated (1 μM, 24 h) SK-MEL-28 cells. H, Semiquantitative RT PCR of TYR, TYRP1, Pmel17, MART1, and Rab27a mRNA. […]
Invasion assays were performed using a cell invasion assay kit (BD Bioscience). […] The invading cells were stained and quantified measuring the surface occupied by stained cells with a cell counter plug-in of the Image J software.

A further data set concerns E2F1. Description: MALDI-TOF mass spectroscopy of immunoprecipitated E2F1 tryptic digests from SK-MEL-28 cells. The format is cell-based, human. The settings on record: SK-MEL-28, 24 h, normalized to internal matrix control. As to the method:
SK-MEL-28 whole cell lysates were immunoprecipitated as described above but with two variations. First, the lysis and dilution buffers contained 2.5 μM trichostatin (a potent deacetylase inhibitor) and 20 μM trans-2-phenylcyclo-propylamine (an irreversible inhibitor of lysine-specific demethylase 1, LSD1). Second, the E2F1 antibody was covalently coupled to Dynabeads® (Invitrogen). After immunoprecipitation and elution, bound proteins were digested with trypsin according to standard procedures (Shevchenko). Data were recorded and processed with Agilent MassHunter Workstation Software for obtaining the Peptide Mass Fingerprint (PMF). The PMF result mass spectra were searched against the E2F1 protein sequence with carbamidomethylation of cysteine as fixed modification and methylation and acetylation of lysine residues, oxidation of methionine residues and phosphorylation of serine residues as variable modifications. Peptide mass tolerance was set to 50 ppm and a maximum of three missed cleavages was considered.

The nature of data set [1]: Pharmacokinetic studies in mice plasma. The format is in vivo. The settings on record: mouse, ip, male C57BL/6 mice, intra-peritoneal MTX 50 mg/kg alone or with TMECG 50 mg/kg. On the procedure: Pharmacokinetic studies were performed in male C57BL/6 mice after intra-peritoneal injection of MTX (50 mg/kg) and/or TMECG (50 mg/kg). Animals were anesthetized with CO2, and whole blood samples (˜0.5 mL) were collected via cardiac puncture. Samples for drug quantification were collected from different animals (in triplicate) at 5, 15, and 30 min and at 1, 2, 4, and 6 hr post-dose. Whole blood samples were transferred to lithium heparin blood collection tubes, and then centrifuged at 10,000 rpm for 10 min at 4° C. After plasma deproteinization with 5% trichloroacetic acid (TCA), MTX and TMECG plasma concentrations were calculated by HPLC. Pharmacokinetic parameters were estimated using the WinNonlin software package (WinNonlin Professional version 5.1., Pharsight Corporation, CA). WinNonlin model 200 was used for the non-compartmental analysis of the concentration-time data. The area under the plasma concentration-time curve (AUClast) from time 0 to the last point (tlast) with measurable concentration (Clast) was estimated using a linear trapezoidal approximation (AUClast). The elimination half-life (t1/2) was calculated as ln2/kel, where kel (elimination rate constant) was estimated using least squares regression analysis of the concentration-time data obtained during the terminal log-linear elimination phase. The maximum plasma concentrations (Cmax) were estimated directly from the data, with tmax being defined as the time of the first occurrence of Cmax.

Marks after values point to notes of the source that are not given here.

Results on one compound are retold here after patent publication US20150231109A1, “COMBINATIONS (CATECHINS AND METHOTREXATE) FOR USE IN THE TREATMENT OF MELANOMAS” (UNIVERSIDAD DE MURCIA, priority 2012, published 2015).

Method for MITF: (§1) mRNA extraction, cDNA synthesis, and conventional and qRT-PCR were performed under standard conditions. Primers were designed using Primer Express version 2.0 software (Applied Biosystems, Foster City, Calif.) and synthesized by Invitrogen (Barcelona, Spain).
(§2) Whole cell lysates were collected by adding SDS sample buffer. After extensive sonication, samples were boiled for 10 min and subjected to SDS-PAGE. Proteins were then transferred to nitrocellulose membranes and analyzed by immunoblotting (ECL Plus, GE Healthcare, Barcelona, Spain).
Confocal microscopy was carried out using a Leica TCS 4D confocal microscope (Wetzlar, Germany). For indirect immuno-fluorescence studies, preparation of the cells on glass slides were fixed with cold acetone for 5 min, and washed with PBS. The cells were incubated with 3% bovine serum albumin (BSA) for 20 min and then 2 h at room temperature with primary antibodies (diluted 1:200 in PBS containing 1% BSA) as described in each experiment. The cells were washed three times in PBS and incubated for 1 h at room temperature with Alexa Fluor Dyes (Invitrogen) as secondary antibodies. After 3 washes with PBS, the cells were incubated with 0.01% 4′-6-diamidino-2-phenylidene (DAPI; Sigma) in water for 5 min. […]
Method for TYR: H, Semiquantitative RT PCR of TYR, TYRP1, Pmel17, MART1, and Rab27a mRNA. SK-MEL-28 and siMITF-SK-MEL-28 cells were treated for 5 h with 1 μM MTX. mRNA levels are presented relative to β-actin mRNA and compared to their expression levels in untreated cells (1-fold).
as §1, §2

As for `CN(Cc1cnc2nc(N)nc(N)c2n1)c1ccc(C(=O)N[C@@H](CCC(=O)O)C(=O)O)cc1` [MTX, methotrexate], the MTX intracellular concentration in the data set with SK-MEL-28 melanoma cells was <0.001* pmol/10^6 cells. Also, the “MITF mRNA and protein” value with MITF is on record as “increased”. Further, the “mRNA expression of MITF differentiation target TYR and TYR protein expression” value in the data set on TYR is “increased”. Moreover, the invasiveness entry in the data set with SK-MEL-28 cells is “eliminated invasiveness”. Also, the “Intensity of phosphorylated (S364) E2F1 peptide” value in the data set with E2F1 (CN 11) amounted to 24. Also, the “Intensity of phosphorylated (S31) E2F1 peptide” value in the data set with E2F1 (CN 46) is given as 12. For the same compound, the “Intensity of hyperacetylated (K117,120,125) E2F1 peptide” value in the data set on E2F1 (CN 49) is 329. Besides, in the data set with E2F1 (CN 64), the “Intensity of non-methylated (K185) E2F1 peptide (K)NHIQWLGSHTTVGVGGR(L)” value is on record as 379. In the data set with E2F1 (CN 295), the “Intensity of non-phosphorylated (S31) E2F1 peptide” value was found to be 312. Besides, in the data set with E2F1 (CN 318), the “Intensity of non-phosphorylated (S364) E2F1 peptide” value is given as 310. In the data set with E2F1 (CN 320), the “Intensity of non-acetylated E2F1 peptide (K)SPGEK(S)” value is reported as 20. The “Intensity of non-acetylated E2F1 peptide (R)HPGK(G)” value in the data set with E2F1 (CN 325) is listed as 16. Further, in the data set on E2F1 (CN 355), the “Intensity of methylated (K185) E2F1 peptide” value is given as 18. In data set [1] (read-out: MTX parameters AUC), the area under the curve (AUC) is 32 µg·h/mL. For the same compound, the peak concentration (Cmax) in data set [1] (read-out: MTX parameters Cmax) was determined as 24.6 µg/mL. For the same compound, the Tmax in data set [1] (read-out: MTX parameters Tmax) stood at 0.5 h. Also, the half-life in data set [1] (read-out: MTX parameters t1/2 (converted)) was 1.77 h.

A word on the AUC: it is the area under the concentration-time curve, a measure of exposure. As a reminder, the Cmax is the highest concentration seen after dosing. As a reminder, the Tmax is the time at which the peak concentration occurs.
